PMC9854251 (Biochemistry, 2022)
Where “and” joins values, the source holds several entries; their conditions need not be identical. Identical values can stand only once.

Legend:
hHINT1 Q62A [1] = target: T1, hHINT1 Q62A (Homo sapiens, UniProt P49773, Q62A); test: Steady-state kinetics assay; format: biochemical
hHINT1 WT [2] = details: steady-state 25 °C, cited from earlier work
hHINT2 R99Q [3] = target: T2, hHINT2 R99Q (Homo sapiens, UniProt Q9BX68, R99Q); test: Stopped-flow burst-phase adenylation kinetics, hHINT2 R99Q; format: biochemical
hHINT2 WT [4] = target: T3, hHINT2 WT (Homo sapiens, UniProt Q9BX68); test: Stopped-flow burst-phase adenylation kinetics, hHINT2 WT; format: biochemical
hHINT1 Q62R [5] = target: T4, hHINT1 Q62R (Homo sapiens, UniProt P49773, Q62R); test: Stopped-flow burst-phase adenylation kinetics, hHINT1 Q62R; format: biochemical
hHINT1 Q62A [6] = target: T1, hHINT1 Q62A; test: Stopped-flow burst-phase adenylation kinetics, hHINT1 Q62A; format: biochemical
hHINT1 WT [7] = details: cited from earlier work
hHINT1 = hHINT1 (Homo sapiens, UniProt P49773); test: Time course simulation; format: biochemical
hHINT2 R99A [8] = target: T5, hHINT2 R99A (Homo sapiens, UniProt Q9BX68, R99A); test: Stopped-flow burst-phase adenylation kinetics, hHINT2 R99A; format: biochemical
hHINT2 = hHINT2 (Homo sapiens, UniProt Q9BX68); test: Time course simulation; format: biochemical
hHINT1 Q62R [9] = target: T4, hHINT1 Q62R; test: Steady-state kinetics assay; format: biochemical; details: steady-state 25 °C
hHINT2 R99A [10] = target: T5, hHINT2 R99A; test: Steady-state kinetics assay; format: biochemical
hHINT2 R99Q [11] = target: T2, hHINT2 R99Q; test: Steady-state kinetics assay; format: biochemical; details: steady-state 25 °C
hHINT2 R99Q [12] = target: T2, hHINT2 R99Q; test: Isothermal titration calorimetry, hHINT2 R99Q; format: binding
hHINT1 WT [13] = details: ITC; cited from earlier work
hHINT2 WT [14] = target: T3, hHINT2 WT; test: Isothermal titration calorimetry, hHINT2 WT; format: binding
[15] = pH 7.2, read-out: k1, E+TpAd ⇆ E•TpAd
[16] = pH 7.2, read-out: k−1, E+TpAd ⇆ E•TpAd
[17] = time course simulation, 4.3 °C, hHINT1
[18] = time course simulation, 4.3 °C, hHINT1, k4 and k5 can be interchanged without altering the fit
[19] = time course simulation, 4.3 °C, hHINT2
[20] = time course simulation, 4.3 °C, hHINT2, k4 and k5 can be interchanged without altering the fit

T2 sequence (Q9BX68 37-163 R99Q limits assumed): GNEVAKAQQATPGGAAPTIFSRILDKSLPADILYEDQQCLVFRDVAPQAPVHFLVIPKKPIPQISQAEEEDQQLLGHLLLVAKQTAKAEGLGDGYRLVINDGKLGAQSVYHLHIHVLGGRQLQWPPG
T5 sequence (Q9BX68 37-163 R99A limits assumed): as the sequence (Q9BX68 37-163 R99Q limits assumed) above, with Q63A counted along it
Sequence of hHINT2 (Q9BX68 37-163 limits assumed): as the sequence (Q9BX68 37-163 R99Q limits assumed) above, with Q63R counted along it
T3 sequence (Q9BX68 37-163 limits assumed): as the sequence (Q9BX68 37-163 R99Q limits assumed) above, with Q63R counted along it
T1 sequence (P49773 whole entry Q62A): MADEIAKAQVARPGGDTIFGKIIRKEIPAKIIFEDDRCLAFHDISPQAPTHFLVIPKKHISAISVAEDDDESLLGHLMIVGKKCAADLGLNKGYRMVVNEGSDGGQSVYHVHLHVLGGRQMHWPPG
Sequence of hHINT1 (P49773 whole entry): as the sequence (P49773 whole entry Q62A) above, with A62Q counted along it
T4 sequence (P49773 whole entry Q62R): as the sequence (P49773 whole entry Q62A) above, with A62R counted along it

Compound: Nc1ncnc2c1ncn2[C@@H]1O[C@H](COP(=O)(O)NCCc2c[nH]c3ccccc23)[C@@H](O)[C@H]1O [TpAd, adenosine tryptamine phosphoramidate monoester]
- kcat decrease, hHINT1 Q62A vs wild-type (hHINT1 Q62A [1]; steady-state): 5 fold
- Km Q62A/WT Ratio (hHINT1 Q62A [1]; steady-state 25 °C, hHINT1): 0.12
- kcat Q62A/WT Ratio (hHINT1 Q62A [1]; steady-state 25 °C, hHINT1): 0.21
- kcat/Km Q62A/WT Ratio (hHINT1 Q62A [1]; steady-state 25 °C, hHINT1): 1.87
- Km (hHINT1 WT [2]): 0.13 ± 0.02 µM
- kcat (hHINT1 WT [2]; substrate turnover): 2.1 ± 0.1 s⁻¹
- Kd (hHINT2 R99Q [3]): 5.45 ± 0.6 µM
- KD R99Q/WT Ratio (hHINT2 R99Q [3]; burst phase 4 °C, hHINT2): 1.00
- k2 R99Q/WT Ratio (hHINT2 R99Q [3]; burst phase 4 °C, hHINT2): 1.04
- k2 (adenylation rate constant) (hHINT2 R99Q [3]; burst phase 4 °C, hHINT2 R99Q): 93.2 ± 5.0 s⁻¹
- Kd (hHINT2 WT [4]): 5.44 ± 0.58 µM
- k2 (adenylation rate constant) (hHINT2 WT [4]; burst phase 4 °C, hHINT2 WT): 89.7 s⁻¹ and 89.7 ± 5.1 s⁻¹
- Kd (hHINT1 Q62R [5]): 2.9 ± 0.2 µM
- KD Q62R/WT Ratio (hHINT1 Q62R [5]; burst phase 25 °C, hHINT1): 0.2
- k2 Q62R/WT Ratio (hHINT1 Q62R [5]; burst phase 25 °C, hHINT1): 0.89
- k2 (adenylation rate constant) (hHINT1 Q62R [5]; burst phase 25 °C, hHINT1 Q62R): 180 ± 9 s⁻¹
- Kd (hHINT1 Q62A [6]): 4.9 ± 0.5 µM
- k2 Q62A/WT Ratio (hHINT1 Q62A [6]; burst phase 25 °C, hHINT1): 0.85
- k2 (adenylation rate constant) (hHINT1 Q62A [6]; burst phase 25 °C, hHINT1 Q62A): 172 ± 6 s⁻¹
- k2 (adenylation rate constant) (hHINT1 WT [7]; burst phase 25 °C): 203 s⁻¹ and 203 ± 13 s⁻¹
- Kd (hHINT1 WT [7]; read-out: KD (substrate binding), burst phase 25 °C): 13 ± 2 µM
- kon (hHINT1; [15]): > 9.5e+06 M⁻¹ s⁻¹
- koff (hHINT1; [16]): > 60 s⁻¹
- k2, E•TpAd ⇆ E-NMP•Tp (hHINT1; [17]): 56.5 ± 2.5 s⁻¹
- k3, E-NMP•Tp ⇆ E-NMP + Tp (hHINT1; [17]): >2000 s⁻¹
- k−2, E•TpAd ⇆ E-NMP•Tp (hHINT1; [17]): 0
- k−3, E-NMP•Tp ⇆ E-NMP + Tp (hHINT1; [17]): 0
- k−4, E-NMP + H20 ⇆ E’-NMP (hHINT1; [17]): 0
- k−5, E’-NMP ⇆ E + NMP (hHINT1; [17]): 0
- k4, E-NMP + H20 ⇆ E’-NMP (hHINT1; [18]): 0.41 ± 0.03 s⁻¹
- k5, E’-NMP ⇆ E + NMP (hHINT1; [18]): >100 s⁻¹
- Kd (hHINT2 R99A [8]): 6 ± 0.47 µM
- KD R99A/WT Ratio (hHINT2 R99A [8]; burst phase 4 °C, hHINT2): 1.10
- k2 R99A/WT Ratio (hHINT2 R99A [8]; burst phase 4 °C, hHINT2): 0.96
- k2 (adenylation rate constant) (hHINT2 R99A [8]; burst phase 4 °C, hHINT2 R99A): 86.4 ± 6.1 s⁻¹
- fluorescence of bound TpAd relative to unquenched tryptamine (hHINT2; TpAd bound to hHINT2, constraint giving excellent simulations): ~ 75%
- kon (hHINT2; [15]): > 5e+07 M⁻¹ s⁻¹
- koff (hHINT2; [16]): > 60 s⁻¹
- k2, E•TpAd ⇆ E-NMP•Tp (hHINT2; [19]): 60.8 ± 2.5 s⁻¹
- k3, E-NMP•Tp ⇆ E-NMP + Tp (hHINT2; [19]): >1640 s⁻¹
- k−2, E•TpAd ⇆ E-NMP•Tp (hHINT2; [19]): 0
- k−3, E-NMP•Tp ⇆ E-NMP + Tp (hHINT2; [19]): 0
- k−4, E-NMP + H20 ⇆ E’-NMP (hHINT2; [19]): 0
- k−5, E’-NMP ⇆ E + NMP (hHINT2; [19]): 0
- k4, E-NMP + H20 ⇆ E’-NMP (hHINT2; [20]): 1.34 s^−1 ± 0.14 s^−1
- k5, E’-NMP ⇆ E + NMP (hHINT2; [20]): >34 s⁻¹
- kcat Q62R/WT Ratio (hHINT1 Q62R [9]): 0.67
- kcat/Km Q62R/WT Ratio (hHINT1 Q62R [9]): 0.73
- decrease in steady-state turnover, hHINT2 R99A vs wild-type (hHINT2 R99A [10]; steady-state): 2 fold
- Km R99A/WT Ratio (hHINT2 R99A [10]; steady-state 25 °C, hHINT2): 0.75
- kcat R99A/WT Ratio (hHINT2 R99A [10]; steady-state 25 °C, hHINT2): 0.46
- kcat/Km R99A/WT Ratio (hHINT2 R99A [10]; steady-state 25 °C, hHINT2): 0.65
- Km R99Q/WT Ratio (hHINT2 R99Q [11]): 0.92
- kcat R99Q/WT Ratio (hHINT2 R99Q [11]): 1.04
- kcat/Km R99Q/WT Ratio (hHINT2 R99Q [11]): 1.18

Compound: O=C(CCc1c[nH]c2ccccc12)NS(=O)(=O)OC[C@H]1O[C@@H](n2cnc3c2ncn2ccnc32)[C@H](O)[C@@H]1O [Inhibitor 1]
- Kd (hHINT2 R99Q [12]): 6.94 ± 0.51 µM
- -TΔS (hHINT2 R99Q [12]; ITC 25 °C, pH 7.2, hHINT2 R99Q): 7.68 ± 0.55 kcal/mol
- n (binding stoichiometry) (hHINT2 R99Q [12]; ITC 25 °C, pH 7.2, hHINT2 R99Q): 1.1
- ΔH (hHINT2 R99Q [12]; ITC 25 °C, pH 7.2, hHINT2 R99Q): -14.72 ± 0.10 kcal/mol
- -TΔS (hHINT1 WT [13]): 8.19 ± 0.13 kcal/mol
- Kd (hHINT2 WT [14]): 9.43 ± 0.45 µM
- ΔH (hHINT2 WT [14]; ITC 25 °C, 10 mM Tris, 150 mM NaCl, pH 7.2, hHINT2 WT): -10.54 ± 0.16 kcal/mol
- -TΔS (hHINT2 WT [14]; ITC 25 °C, pH 7.2, hHINT2 WT): 3.69 ± 0.17 kcal/mol
- n (binding stoichiometry) (hHINT2 WT [14]; ITC 25 °C, pH 7.2, hHINT2 WT): 0.80
- ΔG (hHINT2 WT [14]; ITC 25 °C, pH 7.2, hHINT2 WT): -6.84 ± 0.32 kcal/mol
